{"source": "ChEMBL document CHEMBL5528017", "about": "“Design and synthesis of dual BRD4/Src inhibitors for treatment of triple-negative breast cancer” (Eur J Med Chem, 2024)", "key": {"[1]": {"tested_on": "MDA-MB-231", "experiment": "Antitumor activity against human MDA-MB-231 cells xenografted in NOD-SCID mouse assessed as inhibition of tumor growth at 20 mg/kg, ip qd for 10 days", "assay_type": "functional", "settings": "MDA-MB-231, 240 h, time 10 day, read-out: TGI"}, "[2]": {"tested_on": "MDA-MB-231", "experiment": "Induction of apoptosis in human MDA-MB-231 cells assessed as proportion of viable cells at 0.5 uM incubated for 36 hrs by AnnexinV-FITC/PI staining based flow cytometry (reference value: 93.6%)", "assay_type": "functional"}, "[3]": {"tested_on": "CWR22R", "experiment": "Antiproliferative activity against human 22Rv1 cells assessed as inhibition of cell viability incubated for 3 to 4 days by CCK8 assay", "assay_type": "functional, cell-based", "settings": "time 3-4 day"}, "[4]": {"tested_on": "MDA-MB-231", "experiment": "Induction of apoptosis in human MDA-MB-231 cells assessed as proportion of necrotic cells at 1 uM incubated for 36 hrs by AnnexinV-FITC/PI staining based flow cytometry (reference value: 0%)", "assay_type": "functional"}, "[5]": {"tested_on": "MDA-MB-231", "experiment": "Antitumor activity against human MDA-MB-231 cells xenografted in NOD-SCID mouse assessed as inhibition of tumor growth at 15 mg/kg, ip administered 5 days per week for 27 days", "assay_type": "functional", "settings": "MDA-MB-231, 648 h, time 27 day, read-out: TGI"}, "[6]": {"tested_on": "MDA-MB-231", "experiment": "Induction of apoptosis in human MDA-MB-231 cells assessed as proportion of late apoptotic cells at 0.5 uM incubated for 36 hrs by AnnexinV-FITC/PI staining based flow cytometry (reference value: […]%)", "assay_type": "functional"}, "[7]": {"tested_on": "MDA-MB-231", "experiment": "Induction of apoptosis in human MDA-MB-231 cells assessed as proportion of early apoptotic cells at 0.5 uM incubated for 36 hrs by AnnexinV-FITC/PI staining based flow cytometry (reference value: 5.05%)", "assay_type": "functional"}, "[8]": {"tested_on": "MDA-MB-231", "experiment": "cells", "settings": "Homo sapiens, MDA-MB-231, 72 h", "description": "Antiproliferative activity against human MDA-MB-231 cells assessed as inhibition of cell viability incubated for 72 hrs by CCK8 assay"}, "[9]": {"tested_on": "MDA-MB-231", "experiment": "Induction of apoptosis in human MDA-MB-231 cells assessed as increase in cleaved caspase-9 expression at 0.5 uM incubated for 36 hrs by western blot analysis", "assay_type": "functional, cell-based"}, "[10]": {"tested_on": "MDA-MB-231", "experiment": "Induction of cell cycle arrest in human MDA-MB-231 cells assessed as downregulation of cyclin B1 expression at 0.1 to 0.2 uM incubated for 24 hrs by western blot analysis", "assay_type": "functional, cell-based", "settings": "dose 0.1-0.2 µM"}, "[11]": {"tested_on": "MDA-MB-231", "experiment": "Induction of apoptosis in human MDA-MB-231 cells assessed as proportion of early apoptotic cells at 1 uM incubated for 36 hrs by AnnexinV-FITC/PI staining based flow cytometry (reference value: 5.05%)", "assay_type": "functional"}, "[12]": {"tested_on": "MCF7", "experiment": "Antiproliferative activity against human MCF7 cells assessed as inhibition of cell viability incubated for 3 to 4 days by CCK8 assay", "assay_type": "functional, cell-based", "settings": "time 3-4 day"}, "[13]": {"tested_on": "MDA-MB-231", "experiment": "Induction of apoptosis in human MDA-MB-231 cells assessed as proportion of late apoptotic cells at 1 uM incubated for 36 hrs by AnnexinV-FITC/PI staining based flow cytometry (reference value: […]%)", "assay_type": "functional"}, "[14]": {"tested_on": "MDA-MB-231", "experiment": "Induction of apoptosis in human MDA-MB-231 cells assessed as proportion of viable cells at 1 uM incubated for 36 hrs by AnnexinV-FITC/PI staining based flow cytometry (reference value: 93.6%)", "assay_type": "functional"}, "[15]": {"tested_on": "MDA-MB-231", "experiment": "Antitumor activity against human MDA-MB-231 cells xenografted in NOD-SCID mouse assessed as reduction in tumor weight at 15 mg/kg, ip administered 5 days per week for 27 days", "assay_type": "functional", "settings": "MDA-MB-231, 648 h, time 27 day"}, "[16]": {"tested_on": "MDA-MB-231", "experiment": "Induction of cell cycle arrest in human MDA-MB-231 cells assessed as proportion of cells at S phase at 0.2 uM incubated for 24 hrs by propidium iodide staining based flow cytometry (reference value: 28.2%)", "assay_type": "functional"}, "[17]": {"tested_on": "MDA-MB-231", "experiment": "Induction of cell cycle arrest in human MDA-MB-231 cells assessed as proportion of cells at S phase at 0.1 uM incubated for 24 hrs by propidium iodide staining based flow cytometry (reference value: 28.2%)", "assay_type": "functional"}, "[18]": {"tested_on": "MDA-MB-231", "experiment": "Induction of cell cycle arrest in human MDA-MB-231 cells assessed as proportion of cells at G2 phase at 0.2 uM incubated for 24 hrs by propidium iodide staining based flow cytometry (reference value: 11.6%)", "assay_type": "functional"}, "[19]": {"tested_on": "MDA-MB-231", "experiment": "Induction of cell cycle arrest in human MDA-MB-231 cells assessed as proportion of cells at G1 phase at 0.1 uM incubated for 24 hrs by propidium iodide staining based flow cytometry (reference value: 59.5%)", "assay_type": "functional"}, "[20]": {"experiment": "Toxicity against NOD-SCID mouse xenografted with human MDA-MB-231 cells assessed as adverse effects at 15 mg/kg, ip administered 5 days per week for 27 days", "assay_type": "organism-based", "settings": "in vivo, 648 h, time 27 day"}, "[21]": {"tested_on": "A549", "experiment": "Antiproliferative activity against human A549 cells assessed as inhibition of cell viability incubated for 3 to 4 days by CCK8 assay", "assay_type": "functional, cell-based", "settings": "time 3-4 day"}, "[22]": {"tested_on": "MDA-MB-231", "experiment": "Induction of cell cycle arrest in human MDA-MB-231 cells assessed as proportion of cells at G1 phase at 0.2 uM incubated for 24 hrs by propidium iodide staining based flow cytometry (reference value: 59.5%)", "assay_type": "functional"}, "[23]": {"tested_on": "MDA-MB-231", "experiment": "Induction of apoptosis in human MDA-MB-231 cells assessed as increase in cleaved PARP-1 expression at 0.5 uM incubated for 36 hrs by western blot analysis", "assay_type": "functional, cell-based"}, "[24]": {"tested_on": "MDA-MB-231", "experiment": "Induction of cell cycle arrest in human MDA-MB-231 cells assessed as decrease in cyclin E1 expression at 0.1 to 0.2 uM incubated for 24 hrs by western blot analysis", "assay_type": "functional, cell-based", "settings": "dose 0.1-0.2 µM"}, "[25]": {"experiment": "Toxicity against NOD-SCID mouse xenografted with human MDA-MB-231 cells assessed as effect on body weight at 15 mg/kg, ip administered 5 days per week for 27 days", "assay_type": "organism-based", "settings": "in vivo, 648 h, time 27 day"}, "[26]": {"tested_on": "MDA-MB-231", "experiment": "Induction of apoptosis in human MDA-MB-231 cells assessed as proportion of necrotic cells at 0.5 uM incubated for 36 hrs by AnnexinV-FITC/PI staining based flow cytometry (reference value: 0%)", "assay_type": "functional"}, "[27]": {"tested_on": "MDA-MB-231", "experiment": "Induction of cell cycle arrest in human MDA-MB-231 cells assessed as increase in p21 expression at 0.1 to 0.2 uM incubated for 24 hrs by western blot analysis", "assay_type": "functional, cell-based", "settings": "dose 0.1-0.2 µM"}, "[28]": {"tested_on": "MDA-MB-231", "experiment": "Induction of apoptosis in human MDA-MB-231 cells assessed as increase in cleaved caspase-3 expression at 0.5 uM incubated for 36 hrs by western blot analysis", "assay_type": "functional, cell-based"}, "[29]": {"tested_on": "MDA-MB-231", "experiment": "Induction of cell cycle arrest in human MDA-MB-231 cells assessed as proportion of cells at G2 phase at 0.1 uM incubated for 24 hrs by propidium iodide staining based flow cytometry (reference value: 11.6%)", "assay_type": "functional"}}, "note": "Active and inactive are the calls of the source. The rule behind the calls is not given here.", "data": [{"molecule": "Cc1nc(Nc2ncc(C(=O)Nc3c(C)cccc3Cl)s2)cc(N2CCN(CCOC(=O)C(C)NC(=O)C[C@@H]3N=C(c4ccc(Cl)cc4)c4c(sc(C)c4C)-n4c(C)nnc43)CC2)n1", "note": "(some centres undefined)", "values": [{"measurement": "inhibition in vivo at 20 mg/kg", "setting": "[1]", "result": 75.4, "unit": "%"}, {"measurement": "Activity", "setting": "[2]", "result": 71.1, "unit": "%"}, {"measurement": "Activity", "setting": "[3]", "result": "Active"}, {"measurement": "Activity", "setting": "[4]", "result": 0, "unit": "%"}, {"measurement": "inhibition in vivo at 15 mg/kg", "setting": "[5]", "result": 70.7, "unit": "%"}, {"measurement": "Activity", "setting": "[6]", "result": 6.01, "unit": "%"}, {"measurement": "Activity", "setting": "[7]", "result": 22.9, "unit": "%"}, {"measurement": "IC50", "setting": "[8]", "result": 34, "unit": "nM"}, {"measurement": "Activity", "setting": "[9]", "result": "Active"}, {"measurement": "Activity", "setting": "[10]", "result": "Active"}, {"measurement": "Activity", "setting": "[11]", "result": 16.5, "unit": "%"}, {"measurement": "Activity", "setting": "[12]", "result": "Active"}, {"measurement": "Activity", "setting": "[13]", "result": 7.14, "unit": "%"}, {"measurement": "Activity", "setting": "[14]", "result": 76.3, "unit": "%"}, {"measurement": "inhibition in vivo at 15 mg/kg", "setting": "[15]", "result": 66.1, "unit": "%"}, {"measurement": "Activity", "setting": "[16]", "result": 10.1, "unit": "%"}, {"measurement": "Activity", "setting": "[17]", "result": 12.8, "unit": "%"}, {"measurement": "Activity", "setting": "[18]", "result": 4.96, "unit": "%"}, {"measurement": "Activity", "setting": "[19]", "result": 80.4, "unit": "%"}, {"measurement": "Activity", "setting": "[20]", "result": "Non-Toxic"}, {"measurement": "Activity", "setting": "[21]", "result": "Active"}, {"measurement": "Activity", "setting": "[22]", "result": 84.4, "unit": "%"}, {"measurement": "Activity", "setting": "[23]", "result": "Active"}, {"measurement": "Activity", "setting": "[24]", "result": "Active"}, {"measurement": "Activity", "setting": "[25]", "result": "Non-Toxic"}, {"measurement": "Activity", "setting": "[26]", "result": 0, "unit": "%"}, {"measurement": "Activity", "setting": "[27]", "result": "Active"}, {"measurement": "Activity", "setting": "[28]", "result": "Active"}, {"measurement": "Activity", "setting": "[29]", "result": 6.47, "unit": "%"}]}]}
